Tests used:
RBL-2H3 cells [1] = experiment: Population based exocytic enzyme activity assay on cell supernatant, antigen crosslinking; conditions: RBL-2H3 sensitized 16 hours with varying IgE anti-DNP, stimulated with increasing BSA-DNP
Protocol: (§1) Experiments were carried out in modified tyrodes buffer (MD which consisted of NaCl (137 mM), KCl (2.7 mM), CaCl2 (1.8 mM), MgCl2 (1 mM), Glucose (5.6 mM), Hepes (20 mM, pH 7.4), and bovine serum albumin (0.1%). MC-9 cells were spun at 400×g and the media was aspirated. The cells were then washed with MT, respun/aspirated and taken up in MT at a density of 5×10^6 cells/ml. Cells were then treated with either DMSO or ionophore for 30 minutes (or the time was varied if a timecourse). The cells were then pelleted with the supernatant collected for enzymatic analysis; in some cases, the cells then processed for flow cytometry. All stimulations were carried out at 37° C. Stimulations of RBL-2H3 cells were carried out by washing the adherent cells one time in MT and then adding warmed MT (1 ml/10^6 cells) containing the stimulus. The cells were incubated at 37° C. for 30 minutes and the supernatant was harvested for further analysis. […]
(§2) Enzyme assays were carried out on cell supernatants and pellets following exocytic stimulation. […] The plate was read on a fluorescence plate reader (Wallac, Inc.) using excitation 380 nm/emission 440 nm filters every 3 minutes for five times to obtain an enzymatic rate; analyses were carried out in triplicate.

RBL-2H3 cells [2] = experiment: Annexin-V-FITC staining of exocytic granules, antigen crosslinking, microscopy; format: cell-based; conditions: IgE-sensitized RBL-2H3 cells, 100 ng/ml vs MT buffer only
Protocol: as §1, with “analysis. In some of the examples, (Examples 4-6), the plate bound cells were stained for annexin and then removed from the flask using No-Zyme (Collaborative Research, Inc.) for further processing for flow cytometry.” for “analysis.”
Cells post stimulation or staining were mounted onto glass slides and coverslipped; these were directly visualized by brighffield and fluorescence microscopy on an inverted microscope (TE300, Nikon) using standard BFP, FITC, or TRITC filter sets. […]

MC-9 cells [3] = experiment: Population based exocytic enzyme activity assay on cell supernatant; conditions: 2 μm, 30 minutes, vs DMSO
Protocol: as §1, §2

MC-9 cells [4] = experiment: Exocytic light scatter changes on the flow cytometer; format: cell-based
Protocol: (§3) Experiments were carried out in modified tyrodes buffer (MD which consisted of NaCl (137 mM), KCl (2.7 mM), CaCl2 (1.8 mM), MgCl2 (1 mM), Glucose (5.6 mM), Hepes (20 mM, pH 7.4), and bovine serum albumin (0.1%). MC-9 cells were spun at 400×g and the media was aspirated. The cells were then washed with MT, respun/aspirated and taken up in MT at a density of 5×10^6 cells/ml. Cells were then treated with either DMSO or ionophore for 30 minutes (or the time was varied if a timecourse). The cells were then pelleted with the supernatant collected for enzymatic analysis; in some cases, the cells then processed for flow cytometry. All stimulations were carried out at 37° C. Stimulations of RBL-2H3 cells were carried out by washing the adherent cells one time in MT and then adding warmed MT (1 ml/10^6 cells) containing the stimulus. The cells were incubated at 37° C. for 30 minutes and the supernatant was harvested for further analysis. In some of the examples, (Examples 4-6), the plate bound cells were stained for annexin and then removed from the flask using No-Zyme (Collaborative Research, Inc.) for further processing for flow cytometry. For stimulation of RBL-2H3 cells with antigen crosslinking the cells were incubated overnight with IgE anti-DNP (Sigma Chemical Co.) in complete media at a concentration of 50 ng/ml. The following day they were washed one time in MT and stimulated as described above with the exception that bovine serum albumin coupled to DNP was used as the stimulus at 100 ng/ml.
(§4) Cells processed for stimulation and staining were taken up in MT on ice and filtered through a 100 μm filter prior to cytometry. Cells were analyzed using a FACSCAN (Becton Dickinson Inc., laser line […]) or a Mo-Flo (Cytomation, Inc., laser lines 350 nM broadband (UV), 488 nm, and 647 nm) Cytometer. Cells were sorted, if desired using the Mo-Flo.
(§5) The cells were prepared as described in Example 2, and light scatter properties were determined.

MC-9 cells [5] = experiment: Styryl dye (FM 1-43 / FM 4-64) uptake exocytosis assay by FACS; format: cell-based; conditions: 2 μM vs DMSO
Protocol: as §1, with “analysis. In some of the examples, (Examples 4-6), the plate bound cells were stained for annexin and then removed from the flask using No-Zyme (Collaborative Research, Inc.) for further processing for flow cytometry.” for “analysis.”
The cells were prepared as described above. […] The cells were then ready for analysis in the flow cytometer (see Example 2).

MC-9 cells [6] = experiment: Annexin-V staining exocytosis assay by FACS; format: cell-based
Protocol: as §3
Cells post exocytic stimulus were stained with annexin-PITC at a dilution of 1/100 in MT for 10 minutes at room temperature. The cells were then washed one time in MT, taken up in MT and viewed in the flow cytometer or microscope. For indirect labeling, annexin-biotin was added to the MT during the stimulation procedure at a dilution of 1/200. The cells were then pelleted in ice cold MT, spun, aspirated, and taken up in ice cold MT with streptavidin-APC at a dilution of 1/200 and kept on ice for 15 minutes. […]

MC-9 cells [7] = experiment: Propidium iodide staining (plasma membrane integrity) by FACS; format: cell-based; conditions: 2 μm vs DMSO
Protocol: as §3, with “The following day they were washed one time in MT and stimulated as described above with the exception that bovine serum albumin coupled to DNP was used as the stimulus at 100 ng/ml.” left out

MC-9 cells [8] = experiment: Lysotracker green release from granules by FACS; format: cell-based
Protocol: Lysotracker dyes (blue, green, and red) were loaded into cells by diluting them to a final concentration of 1 μM in complete media and incubating the cells for 60 minutes at 37° C. in their presence. After loading, the cells were washed two times in MT and then were ready for further analysis or stimulation. Further methodologies are described in the preceding examples.

RBL-2H3 cells [9] = experiment: Exocytic light scatter changes on the flow cytometer; format: cell-based; conditions: 0.5 ug/ml, 0 and 10 minutes
Protocol: as §3, §4, §5

MC-9 cells [10] = experiment: In situ enzymology (ELF-97 glucuronide, cell surface glucuronidase) by FACS; format: cell-based; conditions: 0.5 μg/ml vs DMSO
Protocol: MC-9 cells were stimulated for exocytosis as described above and then incubated in enyme substrate buffer (BSA free MT, pH 4.3-7.4 range) containing the substrate ELF-97 Glucuronide (250 NM) for 15 minutes at 37° C. The cells were washed one time in MT and then viewed in the microscope or on the flowcytometer. Further methodologies are described in the preceding examples.

[11] = MC-9 cells, 0, 1, 2, 3 μM, four-parameter analysis

BSA-DNP: bovine serum albumin coupled to DNP, antigen used as the stimulus
supernatant hexosaminidase activity (RBL-2H3 cells [1]): dose response | annexin-V-FITC staining of cell surface granules (RBL-2H3 cells [2]): Numerous cell surface granules are stained

C[C@H](CCC(=O)O)C[C@H](C)C[C@H](C)C(=O)/C=C(\O)[C@H](C)C[C@H](C)C/C=C/[C@@H](C)[C@@H](O)[C@@H](C)[C@@H](O)C[C@@H]1CC[C@@](C)([C@H]2CC[C@@](C)([C@@H](C)O)O2)O1 [ionomycin]
glucuronidase or hexosaminidase activity in the supernatant (MC-9 cells [3]): Stimulated release of granule enzymatic activity is evident | forward scatter (MC-9 cells [4]; [11]): increases | side scatter (MC-9 cells [4]; [11]): decreases | forward and side scatter (MC-9 cells [4]; MC-9 cells, 2 μM vs DMSO, 30 minute timepoint, data not shown): stimulation dependent changes in both parameters | styryl dye fluorescence intensity (FM 4-64 and FM 1-43) (MC-9 cells [5]; channels 1 and 3): clear stimulation dependent increase | FM 1-43 signal (MC-9 cells [5]; four-parameter analysis, data not shown): stimulation dependent increases in both signals | annexin-V-APC signal (MC-9 cells [6]; [11]): becomes greater | annexin-V-APC signal (MC-9 cells [6]; MC-9 cells, 2 μM vs DMSO, four-parameter analysis with FM 1-43, data not shown): stimulation dependent increases in both signals | annexin-V-FITC binding (MC-9 cells [6]; MC-9 cells, 2 μm vs DMSO): significant increase | PI staining (MC-9 cells [7]): no significant increase | Lysotracker green fluorescence intensity, channel 1 (MC-9 cells [8]; MC-9 cells loaded 1 hour, 2 μM vs DMSO): significant loss of signal | Lysotracker green signal (MC-9 cells [8]; [11]): decreases

CNc1ccc2oc(C[C@H]3O[C@@]4(CC[C@H]3C)O[C@H]([C@H](C)C(=O)c3ccc[nH]3)[C@H](C)C[C@H]4C)nc2c1C(=O)O [A23187]
light scatter changes (side scatter vs. forward scatter) (MC-9 cells [4]; MC-9 cells, 0.5 ug/ml, 0, 5 and 30 minutes): Time dependent scatter changes are evident | light scatter changes (side scatter vs. forward scatter) (RBL-2H3 cells [9]): Time dependent scatter changes are evident | ELF-97 signal (cell surface enzymatic precipitate, in situ glucuronidase activity) (MC-9 cells [10]): significant increase in signal

From patent US8334238B2, “Multiparameter FACS assays to detect alterations in cellular parameters and to screen small molecule libraries” (Rigel, Inc., priority 1998, dated 2012)
